US12115178B2, “Acylated active agents and methods of their use for the treatment of autoimmune disorders” (Flagship Pioneering Innovations V, Inc., priority 2018, dated 2024)

How the values were obtained:
naïve CD4+ T cells = test: Human regulatory T cell differentiation assay; type: cell-based; settings: 6 days
Experimental: Peripheral blood mononuclear cells (PBMCs) from whole blood donated by health volunteers were separated by Ficoll-Paque gradient centrifugation and naïve CD4^+ T cells were subsequently isolated using magnet beads (EasySep™ Human Naïve CD4^+ T Cell Isolation Kit, Cambridge, MA). For regulatory T cell (Treg) differentiation assay, naïve CD4^+ T cells were cultured (1-10×10^4 cells) in CTS OpTmizer medium for 6 days and stimulated with 5 ng/ml TGF-β, 100 U/ml IL-2, and ImmunoCult™ Human […] T Cell Activator; Stemcell #10990) with/without our Compounds. Cell viability was determined using a viability dye (eBioscience Fixable Viability Dye eFluor 780: ThermoFisher 65-0865-14) at 1:500 dilution. The cells were gated for Treg, defined as Live, CD11c^−, CD14^−, CD19^−, CD8^−, CD4^+, CD3^+, CD25^+, FOXP3^+. Percent (%) Tregs were calculated as percentage of CD4^+, CD25^+, FOXP3^+ cells over total CD4 T cells. Statistical analysis was performed with GraphPad Prism Software Using One-Way ANOVA.

[1] = Assay 2. Stability in Simulated Intestinal Fluid (SIF); type: in vitro ADME; settings: SIF pH 6.7 with pancreatin, 1 μM, 37° C.
Summary of the method: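 Compounds at 1 µM (from 1 mM DMSO stock) were incubated at 37 °C with agitation in simulated intestinal fluid: FaSSIF in pH 6.7 phosphate buffer with pancreatin. Aliquots taken from T0 onward were quenched with acetonitrile and analyzed by LC/MS for degradation rate.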

[2] = tested on: type II collagen arthritis; test: In vivo rheumatoid arthritis model (semi-established type II collagen arthritis); set-up: species or system Lewis rats; settings: for Mean Ankle Diameter AUC (mm*day) / Mean Ankle Periosteal Bone width (um) / Mean Knee Inflammation score (0-5) / Mean Terminal hind paw weights / Mean body weight change, day −1 to 21 (%) / Relative Spleen to Body Weight (Mean) / Mean Ankle Bone Resorption score (0-5) / Mean Ankle Cartilage Damage score (0-5) / Mean Ankle Pannus score (0-5) / Mean Ankle Periosteal Bone score (0-5) / Mean Ankle inflammation score (0-5) / Mean Knee Bone Resorption score (0-5) / Mean Knee Cartilage Damage score (0-5) / Mean Knee Pannus score (0-5) / Serum IgG: rats; for Mean Ankle Bone Resorption score (0-5) / Mean Ankle Cartilage Damage score (0-5) / Mean Ankle Pannus score (0-5) / Mean Ankle Periosteal Bone score (0-5) / Mean Ankle inflammation score (0-5) / Mean Knee Bone Resorption score (0-5) / Mean Knee Cartilage Damage score (0-5) / Mean Knee Pannus score (0-5): 0 = normal, 5 = severe; for Serum IgG: terminal serum ELISA for anti-type II collagen antibodies
Experimental: A study was conducted to determine the efficacy of test articles dosed by the oral (PO) route for inhibition of the inflammation (paw swelling), cartilage destruction, and bone resorption that occurs in semi-established type II collagen arthritis in female Lewis rats. Rats (10 per group) were injected intradermally (ID) with porcine type II collagen to induce arthritis; one group of rats (4 per group) served as vehicle-treated naïve controls. […] Positive controls were treated PO, BID with the reference compound Tofacitinib citrate (10 mg/kg). The rats were euthanized for necropsy on study day 21 (animals #1-5 in each group, animals #1-2 in naïve group) or 22 (animals #6-10 in each group, animals #3-4 in naïve group). Efficacy evaluation was based on animal body weights (Table 9), daily ankle caliper measurements (FIG. 4), ankle diameter expressed as area under the curve (AUC) (Table 10), terminal hind paw weights (Table 11), histopathologic evaluation of hind paws (Ankle Inflammation score: Table 12, Ankle Pannus score: Table 13, Ankle Cartilage Damage score: Table 14, Ankle Bone Resorption score: Table 15, Ankle Periosteal Bone score: Table 16, Ankle Periosteal Bone Width: Table 17) and knees (Knee Inflammation score: Table 18, Knee Pannus score: Table 19, Knee Cartilage Damage score: Table 20, Knee Bone Resorption score: Table 21), and relative spleen to body weight ratio (Table 22). Terminal serum was analyzed by enzyme-linked immunosorbent assay (ELISA) for anti-type II collagen antibodies (IgG) (Table 23). […] Statistics were conducted using ordinary one-way ANOVA with Dunnett's multiple comparison correction in GraphPad Prism.

SMILES: CN(CCOc1ccc(CC2SC(=O)NC2=O)cc1)c1ccccn1 (stereo not drawn) [Rosiglitazone, rosiglitazone]
- Cell viability % DMSO (naïve CD4+ T cells; 10 uM): = (90%> <110%: =)
- Cell viability % DMSO (naïve CD4+ T cells; 100 uM): − (<90%: −)

SMILES: CC(O)CC(=O)[O-].[Na+] (stereo not drawn) [Sodium BHB]
- Cell viability % DMSO (naïve CD4+ T cells; 2 mM): = (90%> <110%: =)
- Treg induction % DMSO (naïve CD4+ T cells; 2 mM): + (110%> <130%: +)
- Cell viability % DMSO (naïve CD4+ T cells; 20 mM): − (<90%: −)
- Treg induction % DMSO (naïve CD4+ T cells; 20 mM): = (90%> <110%: =)

SMILES: C[C@@H](O)CCO [(R)-1,3-Butanediol]
- Cell viability % DMSO (naïve CD4+ T cells; 100 uM): = (90%> <110%: =)
- Cell viability % DMSO (naïve CD4+ T cells; 0.5 mM): = (90%> <110%: =)

SMILES: CC(=O)O [Acetic acid, acetic acid]
- Cell viability % DMSO (naïve CD4+ T cells; 1 mM): = (90%> <110%: =)
- Cell viability % DMSO (naïve CD4+ T cells; 3 mM): = (90%> <110%: =)

SMILES: CCCC(=O)Oc1cc(OC(=O)CCC)c2c(=O)c(OC(=O)CCC)c(-c3ccc(OC(=O)CCC)c(OC(=O)CCC)c3)oc2c1 [Compound 5, [2-butanoyloxy-4-[3,5,7-tri(butanoyloxy)-4-oxo-chromen-2-yl]phenyl]butanoate]
- Assay 2 (SIF) (% @ Remaining 4 hours) [1]: B (25-75% of the tested compound remaining)
- Mean Ankle Diameter AUC (mm*day) ([2]; 100 mg/kg PO BID): 89.38 mm*day
- Mean Ankle Periosteal Bone width (um) ([2]; 100 mg/kg PO BID): 510.30 um
- Mean Knee Inflammation score (0-5) ([2]; 100 mg/kg PO BID): 5.23
- Mean Terminal hind paw weights ([2]; 100 mg/kg PO BID): 2.3990 g
- Mean body weight change, day −1 to 21 (%) ([2]; 100 mg/kg PO BID): −7.1%
- Relative Spleen to Body Weight (Mean) ([2]; 100 mg/kg PO BID): 0.2453
- Mean Ankle Bone Resorption score (0-5) ([2]; 100 mg/kg PO BID): 2.53
- Mean Ankle Cartilage Damage score (0-5) ([2]; 100 mg/kg PO BID): 3.55
- Mean Ankle Pannus score (0-5) ([2]; 100 mg/kg PO BID): 2.53
- Mean Ankle Periosteal Bone score (0-5) ([2]; 100 mg/kg PO BID): 2.68
- Mean Ankle inflammation score (0-5) ([2]; 100 mg/kg PO BID): 2.3990
- Mean Knee Bone Resorption score (0-5) ([2]; 100 mg/kg PO BID): 2.08
- Mean Knee Cartilage Damage score (0-5) ([2]; 100 mg/kg PO BID): 2.93
- Mean Knee Pannus score (0-5) ([2]; 100 mg/kg PO BID): 2.08
- Serum IgG ([2]; 100 mg/kg PO BID): 5937.67 µg/mL
- Mean Ankle Diameter AUC (mm*day) ([2]; 500 mg/kg PO BID): 93.57 mm*day
- Mean Ankle Periosteal Bone width (um) ([2]; 500 mg/kg PO BID): 699.30 um
- Mean Knee Inflammation score (0-5) ([2]; 500 mg/kg PO BID): 5.65
- Mean Terminal hind paw weights ([2]; 500 mg/kg PO BID): 2.3994 g
- Mean body weight change, day −1 to 21 (%) ([2]; 500 mg/kg PO BID): −10.1%
- Relative Spleen to Body Weight (Mean) ([2]; 500 mg/kg PO BID): 0.2534
- Mean Ankle Bone Resorption score (0-5) ([2]; 500 mg/kg PO BID): 3.33
- Mean Ankle Cartilage Damage score (0-5) ([2]; 500 mg/kg PO BID): 4.45
- Mean Ankle Pannus score (0-5) ([2]; 500 mg/kg PO BID): 3.33
- Mean Ankle Periosteal Bone score (0-5) ([2]; 500 mg/kg PO BID): 3.70
- Mean Ankle inflammation score (0-5) ([2]; 500 mg/kg PO BID): 2.3994
- Mean Knee Bone Resorption score (0-5) ([2]; 500 mg/kg PO BID): 2.65
- Mean Knee Cartilage Damage score (0-5) ([2]; 500 mg/kg PO BID): 4.00
- Mean Knee Pannus score (0-5) ([2]; 500 mg/kg PO BID): 2.65
- Serum IgG ([2]; 500 mg/kg PO BID): 5350.41 µg/mL
- effects on spleen weights relative to body weight, ankle diameter AUC, ankle pannus score, ankle bone resorption score, and ankle periosteal bone score ([2]; rat collagen arthritis, PO BID): significant beneficial effects
